Tests used:
[1] = biological target: BSA (bovine serum albumin) (Bos taurus, UniProt P02769); test: Protein precipitation in vitro, BSA gelling experiments; settings: composition in water
From the text: Therefore, the ability of a composition comprising 1-hexylpyridinium chloride in water for protein precipitation was investigated in vitro using BSA (bovine serum albumin) gelling experiments. An aqueous solution of aluminum chloride hexahydrate was used as a positive control.

[2] = Antiperspirant effect and side effects over the active ingredient concentration range; type: in vivo
[3] = tested on: Staphylococcus epidermidis DSM 20044, ATCC 14990; test: Minimum inhibitory concentration, dilution series in suspension; type: cell-based; settings: 1-hexylpyridinium chloride in water
From the text: (§1) Corynebacteria and germs of the genus Staphylococcus epidermidis are mainly found in the underarm area. Therefore, the bacteriostatic effect of a composition comprising 1-hexylpyridinium chloride in water was investigated in vitro on the relevant test microbes. The test microbes used were Staphylococcus epidermidis with the identifier DSM 20044, ATCC 14990, Corynebacterium xerosis with the identification DSM 20743, ATCC 373 and Kocuria rhizophila of the type Micrococcus with the identifier DSM 11926. Using a series of dilutions of the substance to be tested, the minimum inhibitory concentration was determined at which growth of the bacteria in suspension could no longer be detected. […] Thus, an antimicrobial effect on odor-forming microorganisms and thus a deodorizing effect of the active ingredient 1-hexylpyridinium chloride is also shown in vitro.

[4] = tested on: Corynebacterium xerosis DSM 20743, ATCC 373; test: as above; type: cell-based; settings: 1-hexylpyridinium chloride in water
From the text: as §1

[5] = Skin compatibility, epicutaneous test (occlusive patch); type: in vivo, human; settings: 5% and 7.5% of the active ingredient
From the text: The aim of examining skin compatibility, the so-called epicutaneous test, is to rule out primary skin irritation caused by a test product and/or existing sensitization to the test product. The test substances are applied occlusively to the skin at suitable concentrations. The epicutaneous contact with the test product is limited in terms of location and time and is intensified by occlusion conditions, so that the absorption of the test substances is favored. The skin was examined after 24, 48 and 72 hours. The occlusion conditions are used to allow a potential allergen to more easily penetrate through the stratum corneum to reach the effector cells that could elicit a local immune system response. A positive response occurs when a threshold level of irritation/sensitization is exceeded. A positive reaction to a correctly applied epicutaneous test is considered evidence of primary irritation by the test substance, but not necessarily evidence of sensitization. For the test, 20 mg or 20 μL of the test product is applied undiluted to a ready-made plaster, which is applied and fixed to the clinically healthy skin of the upper back. The test plaster is removed after an exposure time of 24 hours and for the first time assessed dermatologically and allergologically. […] The test reaction was evaluated for the first time 30 minutes after removal of the test plaster under standardized lighting. […]

[6] = In vitro evidence on toxicity, skin corrosion, mutagenicity, carcinogenicity

Sequence of BSA (bovine serum albumin) (P02769 25-607): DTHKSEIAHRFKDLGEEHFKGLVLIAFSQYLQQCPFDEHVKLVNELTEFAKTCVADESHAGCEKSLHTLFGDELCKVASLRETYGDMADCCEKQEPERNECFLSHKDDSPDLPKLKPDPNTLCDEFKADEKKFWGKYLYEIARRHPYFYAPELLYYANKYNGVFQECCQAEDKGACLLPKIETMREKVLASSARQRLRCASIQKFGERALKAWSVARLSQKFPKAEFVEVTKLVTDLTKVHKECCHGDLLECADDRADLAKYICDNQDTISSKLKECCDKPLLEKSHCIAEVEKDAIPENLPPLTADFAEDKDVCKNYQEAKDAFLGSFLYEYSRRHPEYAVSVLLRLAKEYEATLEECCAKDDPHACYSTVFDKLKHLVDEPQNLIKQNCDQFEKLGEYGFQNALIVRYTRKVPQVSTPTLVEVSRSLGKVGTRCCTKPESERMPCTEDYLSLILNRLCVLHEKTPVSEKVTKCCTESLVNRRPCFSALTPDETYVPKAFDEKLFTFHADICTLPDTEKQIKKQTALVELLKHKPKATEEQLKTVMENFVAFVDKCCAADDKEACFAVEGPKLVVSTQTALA

CCCCCC[n+]1ccccc1.[Cl-] [1-hexylpyridinium chloride]
gelation of BSA [1]: leads to gelation of BSA | serious side effects ([2]; active ingredient concentration 0.5% by weight up to 25% by weight): serious side effects were ruled out | antiperspirant effect ([2]; active ingredient concentration 0.5% by weight up to 30% by weight): good antiperspirant effect | minimum inhibitory concentration (bacteriostatic effect) [3]: 0.4% | minimum inhibitory concentration (inhibition of bacterial growth), final preparation concentration [4]: 0.2% | in vivo skin compatibility [5]: Good in vivo skin compatibility | mutagenicity or carcinogenicity [6]: no mutagenicity or carcinogenicity | skin corrosion [6]: no skin corrosion | toxicity [6]: low toxicity
